# Data published in article PMC8511083 (European journal of medicinal chemistry, 2021).
# Tests used:
# [1] = test system: panel of melanoma and breast cancer cell lines; assay: Average growth inhibition in panel of melanoma and breast cancer cell lines; assay type: cell-based; settings: Homo sapiens, read-out: Average IC50, average of results obtained in all six cell lines
# [2] = test system: OVCAR3 and OVCAR8 cells; assay: Average growth inhibition in ovarian cancer cell lines; assay type: cell-based; settings: Homo sapiens, read-out: Average IC50
# [3] = target: T1, survivin (Homo sapiens, UniProt O15392); assay: Western blot of IAPs and cleaved-PARP in A375 cells
# T1 sequence (O15392 whole entry): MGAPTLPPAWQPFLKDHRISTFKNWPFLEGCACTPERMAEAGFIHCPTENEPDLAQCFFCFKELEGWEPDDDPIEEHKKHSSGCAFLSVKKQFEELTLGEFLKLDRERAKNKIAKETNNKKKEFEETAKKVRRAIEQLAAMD
# [4] = target: T1, survivin; assay: Western blot of survivin in ovarian cancer cells; settings: OVCAR8, SKOV3 and OVCAR3 cells, 24 hr, 2 and 4 μM
# [5] = test system: A375 xenograft tumors; assay: A375 subcutaneous melanoma xenograft model in NSG mice; assay type: in vivo, mouse; settings: 20 mg/kg IP, 3 times/week, 15 days, end of experiment, vs vehicle
# [6] = Liver microsome stability assay, human; settings: human microsomes, 88 vs 51 min
# [7] = test system: MDA-MB-435; assay: In vitro antiproliferative; assay type: cell-based; settings: Homo sapiens, MDA-MB-435, 72 h, read-out: IC50 MDA-MB-435
# [8] = test system: MDA-MB-435/LCC6MDR1; assay: In vitro antiproliferative; assay type: cell-based; settings: Homo sapiens, 72 h, read-out: IC50 MDA-MB-435/LCC6MDRI
IC50 [1],SMILES,also measured
2000 nM,"CCc1ccc(-c2cnn(Cc3cc(CN4CCCC4)c(O)c4ncccc34)n2)cc1 [Compound 7e, 5-((4-(4-ethylphenyl)-2H-1,2,3-triazol-2-yl)methyl)-7-(pyrrolidin-1-ylmethyl)quinolin-8-ol]",–
1600 nM,"Cc1cccc(-c2cc(COCc3ccc(C(C)C)cc3)c3cccnc3c2O)c1 [Compound 19e, 5-(((4-isopropylbenzyl)oxy)methyl)-7-(m-tolyl)quinolin-8-ol]",–
1600 nM,"Cc1ccc(-c2cnn(Cc3cc(CN4CCCC4)c(O)c4ncccc34)n2)cc1 [Compound 7d, 7-(pyrrolidin-1-ylmethyl)-5-((4-(p-tolyl)-2H-1,2,3-triazol-2-yl)methyl)quinolin-8-ol]",–
4200 nM,"Oc1c(CN2CCCC2)cc(Cn2cnc(-c3ccccc3)c2)c2cccnc12 [Compound 4a, 5-((4-phenyl-1H-imidazol-1-yl)methyl)-7-(pyrrolidin-1-ylmethyl)quinolin-8-ol]",–
2400 nM,"O=[N+]([O-])c1ccc(-c2cnn(Cc3cc(CN4CCCC4)c(O)c4ncccc34)n2)cc1 [Compound 7f, 5-((4-(4-nitrophenyl)-2H-1,2,3-triazol-2-yl)methyl)-7-(pyrrolidin-1-ylmethyl)quinolin-8-ol]",–
–,"CC(C)c1ccc(COCc2cc(-c3ccccc3)c(O)c3ncccc23)cc1 [Compound 19a, 5-(((4-isopropylbenzyl)oxy)methyl)-7-phenylquinolin-8-ol]","IC50 [2]: 2000 nM; apoptosis induction (cleaved-PARP, western blot) ([3]; 24 h): effectively induced apoptosis; survivin protein levels at 10 μM (western blot) ([3]; 24 h, 10 μM): did not show survivin downregulation; survivin protein levels (western blot) ([3]; 24 h, 1, 5 and 10 μM): selectively downregulated survivin"
2700 nM,"Oc1c(CN2CCCC2)cc(COC2Cc3ccccc3C2)c2cccnc12 [Compound 4c, 5-(((2,3-dihydro-1H-inden-2-yl)oxy)methyl)-7-(pyrrolidin-1-ylmethyl)quinolin-8-ol]",–
1400 nM,"COc1ccc(-c2cc(COCc3ccc(C(C)C)cc3)c3cccnc3c2O)cc1 [Compound 19f, 5-(((4-isopropylbenzyl)oxy)methyl)-7-(4-methoxyphenyl)quinolin-8-ol]",–
1700 nM,"Oc1c(CN2CCCC2)cc(Cn2ncc(-c3ccccc3Br)n2)c2cccnc12 [Compound 7j, 5-((4-(2-bromophenyl)-2H-1,2,3-triazol-2-yl)methyl)-7-(pyrrolidin-1-ylmethyl)quinolin-8-ol]",–
3100 nM,"CCN(CC)Cc1cc(Cn2ncc(-c3ccc(C(F)(F)F)cc3)n2)c2cccnc2c1O [Compound 12d, 7-((diethylamino)methyl)-5-((4-(4-(trifluoromethyl)phenyl)-2H-1,2,3-triazol-2-yl)methyl)quinolin-8-ol]",–
2000 nM,"Oc1c(CN2CCCC2)cc(Cn2ncc(-c3ccc(Br)cc3)n2)c2cccnc12 [Compound 7a, 5-((4-(4-bromophenyl)-2H-1,2,3-triazol-2-yl)methyl)-7-(pyrrolidin-1-ylmethyl)quinolin-8-ol]","IC50 [2]: 1300 nM; apoptosis induction (cleaved-PARP, western blot) ([3]; 24 h): effectively induced apoptosis; levels of other IAPs (CIAP1, XIAP, Livin; western blot) ([3]; 24 h, 1, 5 and 10 μM): minimally affected; survivin protein levels (western blot) ([3]; 24 h, 1, 5 and 10 μM): selectively suppressed survivin levels"
1900 nM,"Oc1c(CN2CCCC2)cc(COC2CCc3ccccc3C2)c2cccnc12 (stereo not shown) [Compound 4d, 7-(pyrrolidin-1-ylmethyl)-5-(((1,2,3,4-tetrahydronaphthalen-2-yl)oxy)methyl)quinolin-8-ol]",–
1700 nM,"Oc1c(CN2CCCC2)cc(Cn2ncc(-c3cccc(Br)c3)n2)c2cccnc12 [Compound 7k, 5-((4-(3-bromophenyl)-2H-1,2,3-triazol-2-yl)methyl)-7-(pyrrolidin-1-ylmethyl)quinolin-8-ol]",IC50 [2]: 1100 nM; survivin protein accumulation (western blot) [4]: reduced the accumulation of survivin protein
2600 nM,"CC(C)c1ccc(COCc2cc(-c3ccc(C(F)(F)F)cc3)c(O)c3ncccc23)cc1 [Compound 19g, 5-(((4-isopropylbenzyl)oxy)methyl)-7-(4-(trifluoromethyl)phenyl)quinolin-8-ol]",–
900 nM,"CC(C)c1ccc(COCc2cc(-c3cncc4ccccc34)c(O)c3ncccc23)cc1 [Compound 19b, 5-(((4-isopropylbenzyl)oxy)methyl)-7-(isoquinolin-4-yl)quinolin-8-ol]",–
1400 nM,"CC(C)c1ccc(COCc2cc(-c3ccnc4ccccc34)c(O)c3ncccc23)cc1 [Compound 19c, 5’-(((4-isopropylbenzyl)oxy)methyl)-[4,7’-biquinolin]-8’-ol]",–
–,"Oc1c(CN2CCCCC2)cc(Cn2ncc(-c3ccc(C(F)(F)F)cc3)n2)c2cccnc12 [Compound 12b, 7-(piperidin-1-ylmethyl)-5-((4-(4-(trifluoromethyl)phenyl)-2H-1,2,3-triazol-2-yl)methyl)quinolin-8-ol]",reduction of tumor weight [5]: approximately 32%; improvement of metabolic stability over MX-106 [6]: 1.7 fold
2000 nM,"COc1ccc(-c2cnn(Cc3cc(CN4CCCC4)c(O)c4ncccc34)n2)cc1 [Compound 7g, 5-((4-(4-methoxyphenyl)-2H-1,2,3-triazol-2-yl)methyl)-7-(pyrrolidin-1-ylmethyl)quinolin-8-ol]",–
2400 nM,"Oc1c(CN2CCCC2)cc(Cn2ncc(-c3ccc(C(F)(F)F)cc3)n2)c2cccnc12 [Compound 7b, 7-(pyrrolidin-1-ylmethyl)-5-((4-(4-(trifluoromethyl)phenyl)-2H-1,2,3-triazol-2-yl)methyl)quinolin-8-ol]",–
1400 nM,"Oc1c(CN2CCCCC2)cc(Cn2ncc(-c3ccc(Br)cc3)n2)c2cccnc12 [Compound 12a, 5-((4-(4-bromophenyl)-2H-1,2,3-triazol-2-yl)methyl)-7-(piperidin-1-ylmethyl)quinolin-8-ol]",IC50 [2]: 1100 nM
1400 nM,"Cc1ccc(-c2cc(COCc3ccc(C(C)C)cc3)c3cccnc3c2O)cc1 [Compound 19d, 5-(((4-isopropylbenzyl)oxy)methyl)-7-(p-tolyl)quinolin-8-ol]",–
2600 nM,"Oc1c(CN2CCNCC2)cc(Cn2ncc(-c3ccc(Br)cc3)n2)c2cccnc12 [Compound 14, 5-((4-(4-bromophenyl)-2H-1,2,3-triazol-2-yl)methyl)-7-(piperazin-1-ylmethyl)quinolin-8-ol]",–
–,COCC[n+]1c2c(n(Cc3cnccn3)c1C)C(=O)c1ccccc1C2=O [YM-155],IC50 [7]: 2.4 ± 0.2 nM; IC50 [8]: > 1000 nM
1700 nM,"Oc1c(CN2CCOCC2)cc(Cn2ncc(-c3ccc(Br)cc3)n2)c2cccnc12 [Compound 12e, 5-((4-(4-bromophenyl)-2H-1,2,3-triazol-2-yl)methyl)-7-(morpholinomethyl)quinolin-8-ol]",–
3300 nM,"N#Cc1ccc(-c2cnn(Cc3cc(CN4CCCC4)c(O)c4ncccc34)n2)cc1 [Compound 7h, 4-(2-((8-hydroxy-7-(pyrrolidin-1-ylmethyl)quinolin-5-yl)methyl)-2H-1,2,3-triazol-4-yl)benzonitrile]",–
